Data published in ChEMBL document CHEMBL1123686, “Esters of N,N-disubstituted 2-hydroxyacetamides as a novel highly biolabile prodrug type for carboxylic acid agents” (J Med Chem, 1987).
≈ marks a conversion by molar mass, not a printed value.

Legend:
[1] = (§1) Half life of ester hydrolysis in 50% human plasma ( pH of 7.4) at 37 degree Centigrade; conditions: 50% human plasma, pH 7.4
[2] = Second order rate constant for hydroxide ion catalyzed by hydrolysis at 37 degree Centigrade
[3] = Half life of ester hydrolysis in 50% human plasma ( pH of 7.4) at 37 degree Centigrade.; assay type: ADME, organism-based; conditions: pH 7.4
physchem [4] = experiment: physchem
physchem [5] = experiment: physchem; remark: listed apart in the source
Homo sapiens [6] = species: Homo sapiens; conditions: Plasma, pH 7.4
Description: Ability to undergo in vitro ester hydrolysis in 80% human plasma ( pH of 7.4) at 37 degree Celsius expressed as half life of N,N-diethylglycolamide ester hydrolysis

Homo sapiens [7] = species: Homo sapiens; conditions: Plasma, pH 7.4; remark: listed apart in the source
Description: Ability to undergo in vitro ester hydrolysis in 80% human plasma ( pH of 7.4) at 37 degree Celsius expressed as half life of methyl ester hydrolysis

Homo sapiens [8] = species: Homo sapiens; experiment: as §1; conditions: pH 7.4

half-life [1] [min]	kOH [2] [M⁻¹ s⁻¹]	solubility (physchem [4]) [mg/mL]	logD (physchem [5]; 0.01 M HCl)	Compound	further results
12.7	0.357	–	–	CN1CCN(C(=O)COC(=O)c2ccccc2)CC1	–
–	1.32	4.1 (≈ 22.9 mM)	0.09	NC(=O)COC(=O)c1ccccc1 [BENZOIC ACID CARBAMOYLMETHYL ESTER]	half-life [3]: 31 min
4.2	0.855	0.32 (≈ 1.36 mM)	2.26	CC(C)(C)NC(=O)COC(=O)c1ccccc1	–
104	0.25	–	0.67	CN(CC(=O)O)C(=O)COC(=O)c1ccccc1	–
–	–	–	–	O=C(O)c1ccccc1O [SALICYLIC ACID]	T1/2 (Homo sapiens [6]): 0.08 min; T1/2 (Homo sapiens [7]): 17.6 h
0.12	0.297	> 200	–	CN(C)CCN(C)C(=O)COC(=O)c1ccccc1.Cl	–
0.16	0.273	–	–	CCN(CCO)C(=O)COC(=O)c1ccccc1	–
11.2	0.868	0.64 (≈ 2.89 mM)	1.88	CCCNC(=O)COC(=O)c1ccccc1 [BENZOIC ACID PROPYLCARBAMOYLMETHYL ESTER]	–
–	–	–	–	COc1ccc2c(c1)c(CC(=O)O)c(C)n2C(=O)c1ccc(Cl)cc1 [INDOMETHACIN]	T1/2 (Homo sapiens [6]): 25 min; T1/2 (Homo sapiens [7]): 150 h
11.5	1.1	1.2 (≈ 5.79 mM)	1.28	CCNC(=O)COC(=O)c1ccccc1 [BENZOIC ACID ETHYLCARBAMOYLMETHYL ESTER]	–
9.3	1.42	3.7 (≈ 19.2 mM)	0.99	CNC(=O)COC(=O)c1ccccc1 [BENZOIC ACID METHYLCARBAMOYLMETHYL ESTER]	–
0.14	0.237	–	–	CCCN(CCC)C(=O)COC(=O)c1ccccc1 [BENZOIC ACID DIPROPYLCARBAMOYLMETHYL ESTER]	–

Compound	half-life [1] [min]	kOH [2] [M⁻¹ s⁻¹]	solubility (physchem [4]) [mg/mL]	logD (physchem [5]; 0.01 M HCl)	further results
CN(CCO)C(=O)COC(=O)c1ccccc1	0.2	0.268	–	–	–
CCOC(=O)CN(C)C(=O)COC(=O)c1ccccc1	0.22	–	–	–	–
O=C(OCC(=O)N(CCO)CCO)c1ccccc1	0.42	0.23	720 (≈ 2690 mM)	–	–
C=CCN(CC=C)C(=O)COC(=O)c1ccccc1 [BENZOIC ACID DIALLYLCARBAMOYLMETHYL ESTER]	–	0.307	0.71 (≈ 2.74 mM)	–	T1/2 (Homo sapiens [8]): 0.08 min; logD (physchem [5]; octanol/water): 2.34
CCCCN(CCCC)C(=O)COC(=O)c1ccccc1 [BENZOIC ACID DIBUTYLCARBAMOYLMETHYL ESTER]	3.1	0.188	0.08 (≈ 0.275 mM)	–	–
CN(C)C(=O)COC(=O)c1ccccc1 [BENZOIC ACID DIMETHYLCARBAMOYLMETHYL ESTER]	0.15	0.325	8.8 (≈ 42.5 mM)	–	–
CCN(CC)C(=O)COC(=O)c1ccccc1 [BENZOIC ACID DIETHYLCARBAMOYLMETHYL ESTER]	–	0.273	2 (≈ 8.5 mM)	–	T1/2 (Homo sapiens [8]): 0.04 min
